The target of this assay is Genome polyprotein (Hepatitis C virus genotype 1a (isolate 1) (HCV), UniProt P26664). Briefly: Inhibition of Hepatitis C RNA dependent RNA polymerase Nonstructural protein 5B activity.

From ChEMBL document CHEMBL1136248, “Further SAR studies on novel small molecule inhibitors of the hepatitis C (HCV) NS5B polymerase” (Bioorg Med Chem Lett, 2003) come the findings set out here.

Some results are limits rather than exact numbers.

The term IC50 denotes the concentration needed to halve the response being measured. A low value points to inhibition by little substance.

Chain of Genome polyprotein (P26664 2421-3011 limits assumed): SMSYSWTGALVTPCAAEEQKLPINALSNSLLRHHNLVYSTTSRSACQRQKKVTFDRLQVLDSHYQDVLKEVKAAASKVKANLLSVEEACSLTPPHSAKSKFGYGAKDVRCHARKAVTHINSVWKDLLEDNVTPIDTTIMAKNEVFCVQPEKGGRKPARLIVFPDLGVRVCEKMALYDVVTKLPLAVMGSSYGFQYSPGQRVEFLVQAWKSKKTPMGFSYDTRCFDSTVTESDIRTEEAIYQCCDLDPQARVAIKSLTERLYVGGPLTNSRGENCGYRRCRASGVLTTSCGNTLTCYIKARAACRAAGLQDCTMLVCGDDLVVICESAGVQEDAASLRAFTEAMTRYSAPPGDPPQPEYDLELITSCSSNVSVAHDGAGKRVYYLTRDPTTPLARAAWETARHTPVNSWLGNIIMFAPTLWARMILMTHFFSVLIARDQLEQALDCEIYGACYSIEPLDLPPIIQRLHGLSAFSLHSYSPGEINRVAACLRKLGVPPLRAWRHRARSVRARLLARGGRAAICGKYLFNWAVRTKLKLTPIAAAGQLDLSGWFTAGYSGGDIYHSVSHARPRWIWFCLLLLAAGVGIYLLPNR

In the case of `O=C(O)[C@H](Cc1ccccc1)N(Cc1cccc(Br)c1)Cc1ccc(Cl)cc1Cl`, half-maximal inhibition (IC50) required 26 µM.

On to `O=C(O)[C@H](Cc1ccccc1)N(Cc1cccc(Br)c1)C(=O)Nc1ccc(Cl)cc1Cl`, for which the midpoint of inhibition, the IC50, lay at 31 µM.

`Cc1cc(Cl)ccc1C(=O)N(Cc1cccc(Br)c1)[C@@H](Cc1ccccc1)C(=O)O`: the IC50 turned out to be 3.7 µM.

In the case of `O=C(O)[C@H](Cc1ccccc1)N(Cc1cccc(Br)c1)C(=O)c1cccc(Cl)c1`, 30 µM corresponded to half-maximal inhibition (IC50).

`O=C(O)[C@H](Cc1ccccc1)N(Cc1cccc(Br)c1)S(=O)(=O)c1ccc(Cl)cc1Cl` came in with an IC50 of 31 µM.

Regarding `O=C(O)[C@H](Cc1ccccc1)N(Cc1cccc(Br)c1)c1ccc(Cl)cc1Cl`, the IC50 came to 15 µM.

Molecule `O=C(O)[C@H](Cc1ccccc1)N(Cc1cccc(Br)c1)C(=O)c1ccc(Cl)nc1Cl` showed an IC50 of 31 µM.

Turning to `O=C(O)[C@H](Cc1ccccc1)N(Cc1cccc(Br)c1)C(=O)c1ccc(Cl)cc1I`, the IC50 amounted to 2.7 µM.

Take `COc1ccc(C(=O)N(Cc2cccc(Br)c2)[C@@H](Cc2ccccc2)C(=O)O)c(OC)c1`: the concentration for half-maximal inhibition (IC50) is 10.7 µM.

Regarding `O=C(O)[C@H](Cc1ccccc1)N(Cc1cccc(Br)c1)C(=O)c1c(Cl)cc(Cl)cc1Cl`, the half-maximal inhibitory concentration (IC50) is 13 µM.

`O=C(O)[C@H](Cc1ccccc1)N(Cc1cccc(Br)c1)C(=O)c1ccc(Cl)cc1Br` displayed an IC50 of 5 µM.

`O=C(O)[C@H](Cc1ccccc1)N(Cc1cccc(Br)c1)C(=O)c1ccc(Cl)cc1Cl` displayed a concentration for half-maximal inhibition (IC50) of 3.5 µM.

`O=C(O)[C@H](Cc1ccccc1)N(Cc1cccc(Br)c1)C(=O)c1ccc(Cl)cc1` had an IC50 of 10.6 µM.

In turn, `O=C(O)[C@H](Cc1ccccc1)N(Cc1cccc(Br)c1)C(=O)c1ccccc1Cl` had an IC50 of 31 µM.

For the molecule `O=C(O)[C@H](Cc1ccccc1)N(Cc1cccc(Br)c1)C(=O)c1ccccc1`, the IC50 was > 50 µM.

In turn, `O=C(O)[C@H](Cc1ccccc1)N(Cc1cccc(Br)c1)C(=O)c1ccc(F)cc1F` displayed an IC50 of 43 µM.

Consider `Cc1ccc(C(=O)N(Cc2cccc(Br)c2)[C@@H](Cc2ccccc2)C(=O)O)c(C)c1`, for which the IC50 was 5.9 µM.

As for `CCc1cc(Cl)ccc1C(=O)N(Cc1cccc(Br)c1)[C@@H](Cc1ccccc1)C(=O)O`, the IC50 turned out to be 5.6 µM.

The molecule `O=C(O)[C@H](Cc1ccccc1)N(Cc1cccc(Br)c1)C(=O)c1ccc(Cl)c(Cl)c1` gave an IC50 of 30 µM.

The molecule `COc1cc(Cl)ccc1C(=O)N(Cc1cccc(Br)c1)[C@@H](Cc1ccccc1)C(=O)O` had an IC50 of 11 µM.
